Among the data in the NIST ThermoML archive (doi:10.1016/j.jct.2012.01.016) are activity coefficient values, retold here.

A short description of this series: activity coefficient (dimensionless); of the first substance listed, at infinite dilution; xn = mol fraction of the nth substance listed. Particulars: Liquid, Headspace solid phase microextraction, x1 = 0.

“And” between values parts separate entries of the source, which are not always exact repeats. Identical values can stand only once.

Consider `Cc1ccccc1C` [1,2-dimethylbenzene] + O=Cc1ccco1, for which the activity coefficient (298.15 K) is 4.12 and 3.74; the activity coefficient (308.15 K) is 4.44 and 3.55; the activity coefficient (318.15 K) was 6.77 and 4.61.

On to `c1ccccc1` [benzene] + O=Cc1ccco1, for which the activity coefficient is 2.61 and 2.45 (298.15 K); 2.93 and 2.4 (308.15 K); 3.87 and 2.89 (318.15 K).

For the compound `C1CCCCC1` [cyclohexane] + O=Cc1ccco1, the activity coefficient by setting is: (298.15 K) 15.7 and 15.5; (308.15 K) 13.5 and 12.9; (318.15 K) 12 and 10.9.

Regarding `C1CCCC1` [cyclopentane] + O=Cc1ccco1, the activity coefficient by setting is: (298.15 K) 11.6 and 11.4; (308.15 K) 10.7 and 10.1; (318.15 K) 10.4 and 9.3.

On to `CCc1ccccc1` [ethylbenzene] + O=Cc1ccco1, for which the activity coefficient is, setting by setting: (298.15 K) 4.84 and 4.52; (308.15 K) 5.02 and 4.35; (318.15 K) 7.21 and 5.25.

For the compound `CCCCCCC` [heptane] + O=Cc1ccco1, the activity coefficient runs as follows: (298.15 K) 32 and 31.6; (308.15 K) 30.8 and 29.6; (318.15 K) 28.3 and 26.4.

As for `CCCCCC` [hexane] + O=Cc1ccco1, the activity coefficient by setting is: (298.15 K) 25.6 and 25.3; (308.15 K) 23.6 and 22.8; (318.15 K) 22.2 and 21.2.

For `CCCCC` [pentane] + O=Cc1ccco1, the activity coefficient was 20.8 and 20.4 (298.15 K); 17.9 and 16.9 (308.15 K); 16.8 and 15 (318.15 K).

On to `Cc1ccccc1` [toluene] + O=Cc1ccco1, for which the activity coefficient reads like this: (298.15 K) 3.72 and 3.46; (308.15 K) 3.79 and 3.33; (318.15 K) 5.3 and 3.8.
